Test results taken from patent US7037907B1 (The University of Melbourne, priority 1999, dated 2006).
Where “and” joins values, the source holds several entries; their conditions need not be identical. Equal entries are not always repeated.

Legend:
[1] = target: T1, estrogen receptor (rat uterine cytosol) (Rattus norvegicus, UniProt P06211)
T1 sequence (P06211 1-600): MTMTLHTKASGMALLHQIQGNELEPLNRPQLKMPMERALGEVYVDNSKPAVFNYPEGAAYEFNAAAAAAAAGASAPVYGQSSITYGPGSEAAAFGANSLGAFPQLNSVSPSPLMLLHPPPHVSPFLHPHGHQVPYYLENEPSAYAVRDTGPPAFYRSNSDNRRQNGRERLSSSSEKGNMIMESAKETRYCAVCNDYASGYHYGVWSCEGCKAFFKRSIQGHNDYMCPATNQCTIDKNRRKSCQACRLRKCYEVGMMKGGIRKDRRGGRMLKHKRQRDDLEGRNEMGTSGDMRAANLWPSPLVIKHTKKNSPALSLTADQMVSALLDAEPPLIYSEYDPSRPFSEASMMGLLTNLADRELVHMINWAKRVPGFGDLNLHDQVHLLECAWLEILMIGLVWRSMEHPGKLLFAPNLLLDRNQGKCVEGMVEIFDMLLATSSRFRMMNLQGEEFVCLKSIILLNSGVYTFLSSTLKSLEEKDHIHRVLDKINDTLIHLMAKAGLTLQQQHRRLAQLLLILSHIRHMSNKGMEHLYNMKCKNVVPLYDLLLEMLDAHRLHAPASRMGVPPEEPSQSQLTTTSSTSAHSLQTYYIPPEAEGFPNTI

[2] = Description: The octanol:water partition co-efficient is a measure of the relative aqueous and lipid solubility of a compound.
[3] = system: Airway smooth muscle cells; test: Shape change of cultured airway smooth muscle cells; type: cell-based, human; conditions: 72 hours in culture, 5% FCS, 10 micro M
[4] = system: Human Airway Smooth Muscle cells; test: Human airway smooth muscle cell number; type: cell-based; conditions: compound 10 μM
Description: (§1) Human airway fibroblasts were obtained from volunteers in a follow-up of the Melbourne Epidemiological Survey of Childhood Asthma (MESCA) (Oswald et al., 1994) initially recruited at age 7 in 1965 and now 42 years old. Volunteers underwent bronchial biopsy which provided tissue samples of epithelium and mucosa of approximately 2 mm^3. These specimens were dissected to remove the epithelium and placed in plastic culture plates. Fibroblasts grew by explant culture over a six week period when maintained according to previously described methods (Zhang et al., 1996). Cells were seeded at subconfluent densities onto six cell plates and after 72 hours were rendered quiescent by serum deprivation. Twenty four hours after serum removal, cells were exposed to thrombin (0.3 U/ml) together with a serum-free medium supplement containing insulin, transferrin and selenium. Cells were harvested by incubation with Trypsin (0.5% w/v) for 10 min. or until a single cell suspension was produced. Cell numbers were then determined using a haemocytometer.
Smooth muscle cells were obtained from airways resected from lung transplant recipients and cultured as previously described in detail (Fernandes et al., 1999). Cell numbers were determined in experiments of the same design as those described for human airway fibroblasts with the additional stimulus of 1% (v/v) fetal calf serum (FCS) being evaluated. In addition, [^3H]-thymidine incorporation was determined between 24 and 28 hours after the addition of thrombin to determine DNA synthesis (Fernandes et al. 1999).

[5] = target: purified E. Coli-derived β-glucuronidase (Escherichia coli, UniProt P05804); test: Susceptibility of 2-MEG to metabolism by E. Coli β-glucuronidase (HPLC); type: in vitro ADME; conditions: incubation with E. Coli β-glucuronidase for 16 hours in Tyrodes buffer
purified E. Coli-derived β-glucuronidase, sequence (P05804 whole entry): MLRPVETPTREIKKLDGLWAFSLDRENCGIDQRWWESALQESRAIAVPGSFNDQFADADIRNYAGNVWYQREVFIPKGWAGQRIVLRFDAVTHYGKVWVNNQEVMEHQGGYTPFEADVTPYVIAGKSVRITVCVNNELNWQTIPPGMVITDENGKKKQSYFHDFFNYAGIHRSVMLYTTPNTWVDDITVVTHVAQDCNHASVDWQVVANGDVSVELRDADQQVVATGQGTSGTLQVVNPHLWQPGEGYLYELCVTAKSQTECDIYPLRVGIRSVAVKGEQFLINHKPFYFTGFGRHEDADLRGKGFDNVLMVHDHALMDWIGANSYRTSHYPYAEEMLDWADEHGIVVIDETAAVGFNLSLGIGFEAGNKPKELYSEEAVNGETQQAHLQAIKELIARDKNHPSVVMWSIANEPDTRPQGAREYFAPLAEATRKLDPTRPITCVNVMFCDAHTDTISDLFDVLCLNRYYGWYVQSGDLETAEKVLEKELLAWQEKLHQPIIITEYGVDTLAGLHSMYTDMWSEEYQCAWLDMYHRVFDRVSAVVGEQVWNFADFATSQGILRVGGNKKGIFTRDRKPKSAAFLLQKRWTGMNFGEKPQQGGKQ
Procedure: (§2) At the end of these incubation periods, extraction was carried out by using 100 μl of reaction mixture with 200 μl of acetontrile (ACN) followed by the addition of 5 μl 2M HCL, vortexing and centrifugation at 1500 g (ambient temperature). Samples of enzyme incubates or quality control incubates were then chilled at −20° C. for at least 10 min, prior to removal of 120 μl of the upper (ACN) phase which is added to 120 μl distilled H2O. One hundred μl of this extract was injected into a Hewlett Packard Series 1050 HPLC fitted with a C18 analytical column (Hypersil ODS 3 μM, 4.6×150 mm) guarded by a pre column (Alltech Hypersil ODS 3 μM; 4.6×7.6 mm) and metabolites were detected with a Hewlett Packard 1046A fluorescence detector (I excitation 270 nm, emission, 320 nm). Metabolites were separated in a mobile phase of ACN buffer of 40:60 (buffer comprised 20 mM NaH2 PO4, 0.02% orthophosphoric acid, pH 3.1–3.2) at a flow rate of 0.7 ml/min. for the first 4 min with a linear gradient to a mobile phase of ACN: buffer (76:24) at 4.5 min. which was maintained for the remainder of the separation (10 min).

A549 cells = test: A549 cell DNA synthesis ([3H]-thymidine); type: cell-based; conditions: 5% fetal calf serum, 10 micromolar, [3H]-thymidine 24 hours after addition
Procedure: A549 cells were maintained in DMEM containing 5% fetal calf serum and undergoing asynchronous proliferation. DNA synthesis was determined by the addition of [3H]-thymidine 24 hours after the addition of one of 2-methoxyestradiol, 6-oxo-2-methoxyestradiol and 2-methoxyestradiol-17β-D-glucuronide.

[6] = incubation with rat renal homogenates for 5.5 hours in Tyrodes buffer
Procedure: as §2

Human airway fibroblasts = test: Human airway fibroblast cell number (haemocytometer); type: cell-based; conditions: stimulus Thrombin (0.3 U/ml), compound 10 μM
Description: as §1

[7] = target: T1, estrogen receptor (rat uterine cytosol); test: biochemical

SMILES | affinity for estrogen receptors relative to 2-MEO (from logIC50 values) ([1]; rat uterine cytosol, [3H]estradiol displacement) | octanol/water partition coefficient ([2]; 1-octanol/water, fluorescence spectroscopy) | aqueous solubility relative to 2-MEO ([2]; inferred from partition coefficients) | logP ([2]; octanol/water) | cell shape change [3] | Cell Number (% control) ([4]; stimulus FCS (1%, v/v)) | Cell Number (% control) ([4]; stimulus Thrombin (0.3 U/ml)) | conversion of 2-MEG to 2-MEO [5] [%] | effect on DNA synthesis (A549 cells) | conversion of 2-MEG to 2-MEO [6] [%] | displacement of [3H]estradiol at highest concentration ([1]; 10 μM displacer) | Cell Number (% control) (Human airway fibroblasts) | IC50 [7] [nM]
COc1cc2c(cc1O)CC[C@@H]1[C@@H]2CC[C@]2(C)[C@@H](O[C@@H]3O[C@H](C(=O)O)[C@@H](O)[C@H](O)[C@H]3O)CC[C@@H]12 [2-MEG, 2-Methoxyestradiol-17-b-D-glucopyranosiduronic acid] | 1/50 | 0.372 | approximately 25 times | −0.429 | not detected | 47 ± 16, n = 5 % control | 29 ± 8, n = 12 % control | ~20 | ineffective | ~6 |  |  | 
COc1cc2c(cc1O)CCC1C2CCC2(C)C(O)CCC12 (stereo not drawn) [2-MEO, 1,3,5(10)-estratriene-3,17βdiol 2 methyl ether, reference compound] |  |  |  |  | readily discernible shape change | 25 ± 9, n = 5 % control | 14 ± 12, n = 10 % control |  | reduce DNA synthesis significantly |  | incomplete response | 12±8 % control and 12 ± 8, n = 7 % control | ~100
COc1cc2c(cc1O)C(=O)C[C@@H]1[C@@H]2CC[C@]2(C)[C@@H](O)CC[C@@H]12 [6-oxo-2-methoxyestradiol, 6-Oxo-2-methoxyestradiol] |  |  |  |  |  |  |  |  | reduce DNA synthesis significantly |  |  |  | 
